Read-outs that look alike come from different tables or passages of the source.
Tests used:
[1] = target: T1, recombinant human NQO2 (Homo sapiens, UniProt P16083); experiment: NQO2 enzyme inhibition assay (DCPIP substrate, NRH or EPR co-substrate); format: biochemical
T1 sequence (P16083 1-231): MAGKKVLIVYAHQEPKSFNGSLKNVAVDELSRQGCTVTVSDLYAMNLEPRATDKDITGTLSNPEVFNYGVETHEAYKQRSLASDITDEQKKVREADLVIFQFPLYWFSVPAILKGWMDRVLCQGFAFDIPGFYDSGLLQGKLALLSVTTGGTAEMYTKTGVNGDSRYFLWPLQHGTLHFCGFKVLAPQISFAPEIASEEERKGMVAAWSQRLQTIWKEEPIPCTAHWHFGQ
Protocol: In this assay, dichlorophenolindophenol (DCPIP) was used as a substrate for NQO2. NRH (SI or EP0152R) was used as the co-substrate for the enzyme.
The NQO2 enzyme assay was carried out using a […] GO spectrophotometer by measuring the absorbance of DCPIP at 600 nm. NRH [31] or EPR were used as co-substrates. The experiment was performed using a 96-well plate with a […] final volume using phosphate buffer (50 mM, pH 7.4). The final concentrations were DCPIP 40 µM and NRH or EPR 200 µM. The final enzyme concentration was 100 ng. The assay was performed at 37 °C and initiated through the addition of NQO2. The initial rates of the enzyme reactions were calculated from the curve by taking the initial slopes of the reactions using the formula (ΔAb/ΔTime). The assay of inhibitors was carried out using the same assay conditions. […] Each experiment was performed in triplicate. Rates were converted to the percentage of enzyme activity, and IC50 values were calculated using GraphPad Prism 7.03 software using the non-linear regression function. IC50 values were determined as a 50% decrease in NQO2 activity.

[2] = target: NQO2; details: read-out: dissociation constant; cited from earlier work
[3] = inhibition of NQO2, DCPIP 40 µM, NRH or EPR 200 µM, phosphate buffer pH 7.4, 37 °C, triplicate, read-out: IC50 (µM) ± SD
[4] = DCPIP substrate, NRH co-substrate, read-out: IC50 for inhibition of NQO2

Row | SMILES | melting point [°C] | IC50 [1, 3] [µM] | inhibition of NQO2 enzymatic activity, in words [1] | IC50 [1, 4] [µM] | Kd [2] [nM]
1 | COc1cc(-c2nc3ccc(F)cc3s2)cc(OC)c1OC [Compound 45, 6-Fluoro-2-(3,4,5-trimethoxyphenyl)benzo[d]thiazole] | 156 to 158 | 0.717 ± 0.015 |  |  | 
2 | COc1cc(OC)cc(-c2nc3ccc([N+](=O)[O-])cc3s2)c1 [Compound 10, 2-(3,5-Dimethoxyphenyl)-6-nitrobenzo[d]thiazole] | 199 to 200 | 93.44 ± 0.02 |  |  | 
3 | COc1cc(OC)cc(C(=O)Nc2ccc3nc(-c4cc(OC)cc(OC)c4)sc3c2)c1 [Compound 14, N-(2-(3,5-Dimethoxyphenyl)benzo[d]thiazol-6-yl)-3,5-dimethoxybenzamide] | 159 to 162 | 1.36 ± 0.06 | further loss of activity |  | 
4 | COc1cc(-c2nc3ccc(Br)cc3s2)cc(OC)c1OC [Compound 41, 6-Bromo-2-(3,4,5-trimethoxyphenyl)benzo[d]thiazole] | 171 to 172 | 0.193 ± 0.003 |  |  | 
5 | COc1ccc(-c2nc3ccc(Cl)cc3s2)c(OC)c1 [Compound 19, 6-Chloro-2-(2,4-dimethoxyphenyl)benzo[d]thiazole] | 170 to 171 | 33.55 ± 0.02 |  | 33.5 | 
6 | COc1cc(OC)cc(-c2nc3ccc(Br)cc3s2)c1 [Compound 4, 6-Bromo-2-(3,5-dimethoxyphenyl)benzo[d]thiazole] | 164 to 165 | > 100 |  |  | 
7 | COc1cc(OC)cc(-c2nc3ccc(C#N)cc3s2)c1 [Compound 7, 2-(3,5-Dimethoxyphenyl)benzo[d]thiazole-6-carbonitrile] | 222 to 224 | > 100 |  |  | 
8 | COc1cc(-c2nc3ccc(Cl)cc3s2)cc(OC)c1OC [Compound 43, 6-Chloro-2-(3,4,5-trimethoxyphenyl)benzo[d]thiazole] | 173 to 174 | 0.773 ± 0.016 |  |  | 
9 | COc1cc(OC)cc(-c2nc3ccc(NC(C)=O)cc3s2)c1 [Compound 12, N-(2-(3,5-Dimethoxyphenyl)benzo[d]thiazol-6-yl)acetamide] | 179 to 181 | 0.605 ± 0.06 |  | 0.605 | 
10 | COc1cc(-c2nc3ccc(C#N)cc3s2)cc(OC)c1OC [Compound 44, 2-(3,4,5-Trimethoxyphenyl)benzo[d]thiazole-6-carbonitrile] | 228 to 230 | 13.28 ± 0.02 |  | 13.3 | 
11 | Oc1ccc(/C=C/c2cc(O)cc(O)c2)cc1 [Resveratrol, trans-3,4’,5-trihydroxystilbene] |  |  |  |  | 35
12 | COc1ccc(-c2nc3ccc(F)cc3s2)cc1 [Compound 54, 6-Fluoro-2-(4-methoxyphenyl)benzo[d]thiazole] | 127 to 130 | > 100 |  | > 100 | 
13 | COc1cc(OC)cc(-c2nc3ccc(I)cc3s2)c1 [Compound 9, 2-(3,5-Dimethoxyphenyl)-6-iodobenzo[d]thiazole] | 150 to 152 | 2.46 ± 0.01 |  |  | 

From article PMC11593696, “Discovery of Potent Benzothiazole Inhibitors of Oxidoreductase NQO2, a Target for Inflammation and Cancer” (International Journal of Molecular Sciences, 2024)
